Conditions: Liquid; for viscosity: Vibrating wire viscometry; for vapor or sublimation pressure: Closed cell (Static) method

CCF [fluoroethane]
viscosity [mPa·s]
Conditions | 5000 kPa | 10000 kPa | 15000 kPa | 20000 kPa | 25000 kPa | 30000 kPa
243.17 K | 0.232 | 0.2433 | 0.2538 | 0.2643 | 0.2748 | 0.285
253.16 K | 0.2037 | 0.2128 | 0.2214 | 0.2315 | 0.2396 | 0.2489
263.17 K | 0.1834 | 0.1926 | 0.2012 | 0.2097 | 0.2177 | 0.2262
273.15 K | 0.1642 | 0.1729 | 0.1812 | 0.1894 | 0.1971 | 0.205
283.15 K | 0.147 | 0.1553 | 0.1637 | 0.1713 | 0.1794 | 0.1868
293.15 K | 0.1322 | 0.1406 | 0.1489 | 0.1566 | 0.1642 | 0.1717
303.15 K | 0.1196 | 0.1279 | 0.136 | 0.1437 | 0.1512 | 0.1584
313.14 K | 0.1078 | 0.1164 | 0.1242 | 0.132 | 0.1393 | 0.1468
323.16 K | 0.0968 | 0.1054 | 0.1134 | 0.1209 | 0.1282 | 0.1356
333.16 K | 0.0866 | 0.0958 | 0.1039 | 0.1113 | 0.1181 | 0.1247
343.16 K | 0.0766 | 0.0866 | 0.0953 | 0.1027 | 0.1094 | 0.1159
353.16 K | 0.0666 | 0.0782 | 0.0871 | 0.0946 | 0.1014 | 0.108
363.16 K | 0.0562 | 0.0699 | 0.0796 | 0.0873 | 0.0943 | 0.1005

Conditions | vapor or sublimation pressure [kPa] | viscosity [mPa·s]
243.17 K | 140 | 0.2238
253.16 K | 210 | 0.1961
263.17 K | 310 | 0.175
273.15 K | 440 | 0.1565
283.15 K | 600 | 0.1395
293.15 K | 810 | 0.1247
303.15 K | 1060 | 0.1122
313.14 K | 1360 | 0.1003
323.16 K | 1730 | 0.0902
333.16 K | 2170 | 0.0803
343.16 K | 2680 | 0.0708
353.16 K | 3280 | 0.0614
363.16 K | 3990 | 0.0514

Source: the NIST ThermoML archive (doi:10.1007/s10765-013-1546-4)
